Laboratory results from patent publication US20140249135A1, “PIM KINASE INHIBITORS AND METHODS OF THEIR USE” (NOVARTIS AG, priority 2007, published 2014).
Read-outs that look alike come from different tables or passages of the source.

Tests used:
[1] = target: Pim2 kinase (Homo sapiens, UniProt Q9P1W9); test: Pim2 ATP depletion assay; type: biochemical; details: read-out: IC50 (μM) PIM2;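 further: Luciferase-based luminescent readout of ATP remaining after PIM2 phosphorylates a BAD peptide, final 5 nM enzyme, 4 µM ATP, 10 µM peptide, 2.5% DMSO, run to roughly half ATP consumption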
[2] = target: KDR kinase (Homo sapiens, UniProt P35968); test: KDR AlphaScreen assay; details: KDR IC50 (μM)
[3] = target: T1, human full length PKCE enzyme (Homo sapiens, UniProt Q02156); test: In vitro PKCE assay; type: biochemical; details: 10 nM enzyme, 40 uM peptide substrate, 20 uM ATP, KinaseGlo Plus readout; read-out: PKCε IC50
T1 construct: human full length PKCE enzyme purchased from InVitrogen; purchased InVitrogen
T1 sequence (Q02156 1-737): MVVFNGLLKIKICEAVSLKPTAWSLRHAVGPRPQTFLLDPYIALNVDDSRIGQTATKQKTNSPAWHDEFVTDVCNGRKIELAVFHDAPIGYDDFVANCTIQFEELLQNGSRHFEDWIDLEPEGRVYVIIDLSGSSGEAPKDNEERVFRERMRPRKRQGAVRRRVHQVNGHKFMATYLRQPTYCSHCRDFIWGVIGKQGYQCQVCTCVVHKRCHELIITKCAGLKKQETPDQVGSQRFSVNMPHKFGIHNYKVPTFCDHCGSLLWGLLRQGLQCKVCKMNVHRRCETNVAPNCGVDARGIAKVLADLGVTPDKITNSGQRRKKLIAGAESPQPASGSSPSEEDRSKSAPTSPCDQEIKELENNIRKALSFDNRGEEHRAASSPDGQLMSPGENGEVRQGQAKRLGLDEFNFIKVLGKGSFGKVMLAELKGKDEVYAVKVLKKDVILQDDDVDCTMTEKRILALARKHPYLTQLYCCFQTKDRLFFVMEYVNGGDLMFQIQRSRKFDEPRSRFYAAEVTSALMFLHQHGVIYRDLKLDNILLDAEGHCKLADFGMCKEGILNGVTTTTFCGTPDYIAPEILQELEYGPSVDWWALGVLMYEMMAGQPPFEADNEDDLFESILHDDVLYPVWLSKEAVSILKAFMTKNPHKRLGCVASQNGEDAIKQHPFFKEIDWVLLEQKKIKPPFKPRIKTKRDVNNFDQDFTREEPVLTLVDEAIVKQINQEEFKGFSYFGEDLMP

[4] = target: Pim1 kinase (Homo sapiens, UniProt P11309); test: Pim1 ATP depletion assay; type: biochemical;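 further: Luciferase-luciferin luminescence readout of residual ATP after PIM1 transfers phosphate to a peptide substrate, 40 µM ATP added, reaction run to roughly half ATP consumption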
[5] = target: Pim3 kinase (Homo sapiens, UniProt Q86V86); test: Pim3 ATP depletion assay; type: biochemical; details: read-out: IC50 (μM) PIM3
[6] = Pim1 ATP depletion assay, read-out: IC50 (μM) PIM1

KDR kinase, sequence (P35968 20-1356): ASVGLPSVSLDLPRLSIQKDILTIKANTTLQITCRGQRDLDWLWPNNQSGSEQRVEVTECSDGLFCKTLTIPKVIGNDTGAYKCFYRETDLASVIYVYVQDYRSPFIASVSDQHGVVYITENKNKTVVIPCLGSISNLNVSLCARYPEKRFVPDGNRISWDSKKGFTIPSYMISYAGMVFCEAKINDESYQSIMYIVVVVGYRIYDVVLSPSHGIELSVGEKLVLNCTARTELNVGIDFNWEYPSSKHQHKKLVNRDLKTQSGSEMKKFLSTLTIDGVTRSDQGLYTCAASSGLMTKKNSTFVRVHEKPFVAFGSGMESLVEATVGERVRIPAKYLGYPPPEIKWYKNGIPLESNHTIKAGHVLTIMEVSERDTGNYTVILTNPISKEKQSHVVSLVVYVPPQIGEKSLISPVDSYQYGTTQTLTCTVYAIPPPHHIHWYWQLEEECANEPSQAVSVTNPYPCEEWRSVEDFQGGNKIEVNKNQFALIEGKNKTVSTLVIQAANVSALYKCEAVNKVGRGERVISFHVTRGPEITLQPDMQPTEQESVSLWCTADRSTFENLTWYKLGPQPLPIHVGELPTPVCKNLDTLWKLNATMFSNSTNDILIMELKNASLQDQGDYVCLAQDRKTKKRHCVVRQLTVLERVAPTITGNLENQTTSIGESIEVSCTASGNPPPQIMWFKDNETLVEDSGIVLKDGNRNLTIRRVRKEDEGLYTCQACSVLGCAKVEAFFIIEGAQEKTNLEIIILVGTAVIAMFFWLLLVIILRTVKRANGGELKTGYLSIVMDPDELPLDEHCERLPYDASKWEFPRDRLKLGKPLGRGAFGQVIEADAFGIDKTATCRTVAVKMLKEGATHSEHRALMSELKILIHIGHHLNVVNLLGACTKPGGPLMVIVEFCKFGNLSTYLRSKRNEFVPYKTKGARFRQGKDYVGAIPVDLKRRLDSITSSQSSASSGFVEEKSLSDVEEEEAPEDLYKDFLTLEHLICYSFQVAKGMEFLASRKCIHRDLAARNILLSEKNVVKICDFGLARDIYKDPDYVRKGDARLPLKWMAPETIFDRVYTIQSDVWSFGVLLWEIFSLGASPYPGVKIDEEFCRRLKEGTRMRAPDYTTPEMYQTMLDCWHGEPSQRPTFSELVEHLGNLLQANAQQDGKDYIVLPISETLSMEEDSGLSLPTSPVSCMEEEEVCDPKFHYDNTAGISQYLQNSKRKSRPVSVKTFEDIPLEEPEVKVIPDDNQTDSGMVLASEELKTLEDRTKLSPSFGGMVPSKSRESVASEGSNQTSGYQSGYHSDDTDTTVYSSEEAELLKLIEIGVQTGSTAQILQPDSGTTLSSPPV
Pim1 kinase, sequence (P11309 whole entry): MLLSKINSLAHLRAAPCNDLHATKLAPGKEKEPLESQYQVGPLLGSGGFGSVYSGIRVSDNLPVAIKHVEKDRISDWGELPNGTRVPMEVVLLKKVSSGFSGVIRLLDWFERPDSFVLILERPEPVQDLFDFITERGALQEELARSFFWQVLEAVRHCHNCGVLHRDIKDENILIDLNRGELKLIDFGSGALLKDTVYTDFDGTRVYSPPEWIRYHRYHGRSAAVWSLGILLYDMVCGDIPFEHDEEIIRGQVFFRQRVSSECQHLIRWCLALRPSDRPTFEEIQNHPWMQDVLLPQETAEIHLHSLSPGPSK
Pim2 kinase, sequence (Q9P1W9 whole entry): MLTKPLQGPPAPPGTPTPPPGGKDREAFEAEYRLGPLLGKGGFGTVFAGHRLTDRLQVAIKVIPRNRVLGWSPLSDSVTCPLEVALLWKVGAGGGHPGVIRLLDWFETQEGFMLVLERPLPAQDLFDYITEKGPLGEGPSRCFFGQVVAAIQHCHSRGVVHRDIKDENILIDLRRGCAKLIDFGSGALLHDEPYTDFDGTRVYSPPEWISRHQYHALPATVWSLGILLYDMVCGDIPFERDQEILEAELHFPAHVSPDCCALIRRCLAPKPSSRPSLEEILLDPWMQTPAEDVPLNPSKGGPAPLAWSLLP

SMILES | IC50 [1] [µM] | IC50 [2] [µM] | IC50 [3] [nM] | IC50 [4, 6] [µM] | IC50 [5] [µM] | IC50 [4] [µM]
NC(=O)c1cccc(-c2cnc(N)c(C(=O)Nc3cnccc3N3CCCC(N)C3)n2)c1 (stereo not shown) [Example 369, 3-amino-6-(3-carbamoyl-phenyl)-pyrazine-2-carboxylic acid (3-amino-3,4,5,6-tetra-hydro-2H-[1,4′]bipyridinyl-3′-yl)-amide] | < 1 | < 1 | < 1000 | < 1 | < 1 | –
Nc1ccc(-c2ccc(N)c(C(=O)Nc3cnccc3N3CCC[C@H](N)C3)n2)c(F)n1 [Example 484, 5,6′-Diamino-2′-fluoro-[2,3′]bi-pyridinyl-6-carboxylic acid (3-amino-3,4,5,6-tetrahydro-2H-[1,4′]bipyridinyl-3′-yl)-amide] | < 1 | > 25 | 10000 to 25000 | < 1 | < 1 | –
Cc1cnc(N)c(C(=O)Nc2cc(C(=O)c3ccccc3)ccc2N2CCNCC2)n1 [Example 440, 3-amino-6-methyl-pyrazine-2-carboxylic acid (5-benzoyl-2-piperazin-1-yl-phenyl)-amide] | > 25 | 1 to 10 | > 25000 | > 25 | 10 to 25 | –
NC(=O)c1ccc(N2CCCCC2)c(NC(=O)c2nc(Br)cnc2N)c1 [Example 133, 3-amino-6-bromo-N-(5-carbamoyl-2-piperidin-1-yl-phenyl)pyrazine-2-carboxamide] | < 1 | 1 to 10 | > 25000 | < 1 | < 1 | –
Nc1nccnc1C(=O)Nc1cnccc1C1=CCCCC1 [Example 118, 3-amino-N-(4-cyclohex-1-en-1-ylpyridin-3-yl)pyrazine-2-carboxamide] | 1 to 10 | < 1 | < 1000 | < 1 | < 1 | –
COc1ccc(N2CCCC(N)C2)c(NC(=O)c2nc(Br)cnc2N)c1 (stereo not shown) [Example 212, 3-amino-N-[2-(3-aminopiperidin-1-yl)-5-methoxyphenyl]-6-bromopyrazine-2-carboxamide] | < 1 | 10 to 25 | < 1000 | < 1 | < 1 | –
Nc1nc(N)c(C(=O)Nc2cnccc2N2CCCCC2)nc1Cl [Example 121, 3,5-diamino-6-chloro-N-(4-piperidin-1-ylpyridin-3-yl)-pyrazine-2-carboxamide] | < 1 | < 1 | > 25000 | < 1 | < 1 | –
NCCC(=O)N1CCN(c2ccncc2NC(=O)c2nccnc2N)CC1 [Example 188, 3-amino-N-{4-[4-(3-aminopropanoyl)piperazin-1-yl]pyridin-3-yl}pyrazine-2-carboxamide] | 1 to 10 | 1 to 10 | < 1000 | – | < 1 | < 1
NCCC(=O)N1CCN(c2cnc(=O)[nH]c2NC(=O)c2nccnc2N)CC1 [Example 237, 3-amino-N-{5-[4-(3-amino-propanoyl)piperazin-1-yl]-2-oxo-2,3-dihydropyrimidin-4-yl}-pyrazine-2-carboxamide] | < 1 | < 1 | 1000 to 10000 | < 1 | < 1 | –
Nc1nccnc1C(=O)Nc1cc(C(F)(F)F)ccc1N1CCCC(N)C1 (stereo not shown) [Example 226, 3-amino-N-[2-(3-aminopiperidin-1-yl)-5-(trifluoromethyl)phenyl]-pyrazine-2-carboxamide] | 1 to 10 | > 25 | 1000 to 10000 | < 1 | < 1 | –
Nc1nccnc1C(=O)Nc1cccnc1N1CCCC(N)C1 (stereo not shown) [Example 196, 3-amino-N-[2-(3-aminopiperidin-1-yl)pyridin-3-yl]pyrazine-2-carboxamide] | 10 to 25 | > 25 | 1000 to 10000 | 1 to 10 | 1 to 10 | –
